# pEC50: −log10 of the molar value.
# Columns and labels:
# [1] = target: T1, APOL1 G2 (Homo sapiens, UniProt O14791, DEL388-389); assay: APOL1 G2 HEK293 rescue of cell death caused by overexpression of APOL1 (CellTiter-Glo); assay type: cell-based; conditions: HEK293/T-REx APOL1 G2 clone #2, doxycycline induction, 17 hours, CellTiter-Glo luminescence; reversal of cell death; geometric mean of at least 2 assay runs
# T1 construct: expressed in transfected cells; host or cells: HEK293/T-REx APOL1 G2 clone #2, doxycycline-inducible
# T1 sequence (O14791 with tags, fused parts or gaps DEL388-389): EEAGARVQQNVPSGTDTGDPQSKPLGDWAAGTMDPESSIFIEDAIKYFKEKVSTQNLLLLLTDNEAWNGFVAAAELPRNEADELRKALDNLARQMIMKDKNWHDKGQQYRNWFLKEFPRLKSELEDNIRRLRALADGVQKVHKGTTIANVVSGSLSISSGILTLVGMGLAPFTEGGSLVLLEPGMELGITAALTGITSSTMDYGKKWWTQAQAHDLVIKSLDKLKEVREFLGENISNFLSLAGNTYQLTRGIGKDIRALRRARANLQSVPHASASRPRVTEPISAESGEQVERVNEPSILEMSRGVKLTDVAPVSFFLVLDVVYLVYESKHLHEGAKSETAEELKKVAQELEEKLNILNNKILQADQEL
# Description: A HEK293 clonal cell line overexpressing APOL1 G2 (HEK293/T-REx APOL1 G2/clone #2) was maintained in 1×DMEM-GlutaMax (Gibco, 10569-010) media with 10% tetracycline-free FBS (Takara Bio USA, 631101), 5 μg/mL Blasticidin (Gibco, A1113903), and 100 μg/mL Zeocin (Invitrogen, R25001) in T75 flasks. In preparation for the assay, this media was aspirated and 2 mL of prewarmed TrypLE Express (Gibco, 12605-010) was added to a flask to detach cells. The flask was then incubated (humidified, 37° C. with 5% CO2) for 3-5 minutes. Afterwards, 8 mL of prewarmed cell assay media (1×DMEM-GlutaMax media with 10% tetracycline-free FBS) was added to the trypsinized cells. The suspension was gently mixed, and cells were counted using a Countess Cell Counting Chamber (Invitrogen). The suspension was diluted using cell assay media to generate a working stock solution (166,667 cells/mL). Using a MultiDrop Combi (Thermo Electron Corp), 30 μL (final cell density=5,000 cells/well) of the working stock solution was dispensed into each well of white 384-well assay ready plates (Nunc™, 164610) containing 6 ng/mL doxycycline, to induce APOL1 expression, and compound. All compounds were plated in a duplicate 8-point dilution series that consisted of 3-fold stepwise dilutions (0.5% DMSO final). Assay plates were incubated (humidified, 37° C. with 5% CO2) for 17 hours. After the incubation, the plates were equilibrated at room temperature for 1 hour. Next, 15 μl of CellTiter-Glo® reagent (Promega, G7570) was added to each well using a MultiDrop Combi. Plates were placed on an orbital shaker (500 rpm) for 5 minutes to induce cell lysis and then incubated at room temperature for 10 minutes. Luminescence was measured on an Envision plate reader. Collaborative Drug Discovery software was utilized for graphing data. Plots were generated using a four parameter logistic curve fit.
# Table B2 below provides the results from this experiment. Unless otherwise specified, EC50 values are reported as the geometric mean of at least 2 assay runs on separate days. Each run represents the average of a technical replicate, where each compound was assayed twice in the same plate. A superscript t symbol indicates a value from the average of a technical replicate from a single assay run, where each compound was assayed twice in the same plate. Compounds in Table B2 are referred to by the corresponding Compound Number in Table 1, which is also referred to in the synthetic examples. When one or more of the numbered compounds are identified by stereochemistry (for example, (R)- or (S)-), the specific stereoisomer for which data is provided in Table B2 may be identified by the elution order of such compound as described in the synthetic examples. To illustrate, Compound 2 is the first-eluting enantiomer of step 4 of Example 1 and Compound 3 is the second-eluting enantiomer of step 4 of Example 1. Further, by way of illustration, Compound 27 is the first-eluting enantiomeric mixture in step 4 of Example 7 and Compound 28 is the second-eluting enantiomeric mixture in step 4 of Example 7. Then, Compound 27 is separated into Compound 29 (the first-eluting enantiomer) and Compound 30 (the second-eluting enantiomer) in Example 8, and Compound 28 is separated into Compound 31 (the first-eluting enantiomer) and Compound 32 (the second-eluting enantiomer) in Example 8. Absolute stereochemistry of such compounds may be identified by methods known in the art.
# Rescue EC50 values reported in Table B2 below represent the half-maximal effective concentration for reversal of cell death caused by overexpression of APOL1.
# [2] = target: T1, APOL1 G2; assay: APOL1 G2 FLIPR calcium influx assay (HEK T-REx/GCaMP6f/APOL1 G2 K6.3 cells); assay type: cell-based; conditions: HEK293 clone expressing GCaMP6f, doxycycline-induced APOL1 G2; prevention of calcium influx; geometric mean of at least 2 assay runs
# Description: A HEK293 clonal cell line was generated to stably express GCaMP6f, a genetically encoded calcium indicator, and inducibly express APOL1 G2 (HEK T-REx/GCaMP6f/APOL1 G2 K6.3). Cells were maintained in the following standard complete medium: DMEM with 4.5 g/L glucose and sodium pyruvate (BioWhittaker, Lonza, BE12-614F), supplemented with 10% FBS Performance Plus (Gibco, 16000044), 1% penicillin-streptomycin (BioWhittaker, DE17-602E), 2 mM ultraglutamine-1 (BioWhittaker cat. BE 17-605/U1), 50 μg/mL Zeocin (InvivoGen, ant-zn), 2.5 μg/mL Blasticidin (InvivoGen, ant-bl-5), and 25 μg/mL Hygromycin (InvivoGen, ant-hg). Standard propagation conditions consisted of plating 9×10^6, 4×10^6, 2×10^6 cells in a T225 flasks to be processed after 2, 3, or 4 days, respectively.
# A source plate was generated containing 20 serially diluted compounds in DMSO (duplicate 8-point dose response). Next, 0.8 μL of compounds were transferred from the source plate to a destination plate prefilled with 79.2 μL of Ca^2+ free Tyrode's buffer (130 mM NaCl, 5 mM KCl, 1 mM MgCl2, 5 mM NaHCO3, 20 mM HEPES at pH 7.4). The destination plate was placed on a plate shaker (5 seconds at 2000 rpm) to mix. […] All transfer and mixing steps were conducted with an CyBi®-Well dispenser.
# Cells were split by gently washing with DPBS (Euroclone, ECB4004L), followed by a 5-minute incubation (humidified, 37° C. with 5% CO2) with trypsin-EDTA solution (Euroclone, ECB3052D). Detached cells were diluted with standard complete medium without selective agents, counted, and plated in a 384 MTP microplate (GR4332CPL, Twin Helix) (10,000 cells/well in 25 μl/well) using a MATRIX WellMate dispenser. Plates were placed into a humidified incubator (37° C. with 5% CO2) overnight. The following day, 20 μL of doxycycline (Sigma, D9891) at 20 ng/mL in standard complete medium was added to cells with a CyBi®Drop dispenser to induce APOL1 G2 expression. After a 6-hour incubation (humidified, 37° C. with 5% CO2), cells were washed 3 times with Ca^2+ free Tyrode's Buffer (130 mM NaCl, 5 mM KCl, 1 mM MgCl2, 5 mM NaHCO3, 20 mM HEPES at pH 7.4) using a BIOTEK Microplate washer, such that 10 μL of buffer remained in each well after the final wash. Assay plates were then stored at room temperature for 10 minutes. Next, 10 μL of diluted compounds were transferred to the assay plate from the 2× compound plate using a CyBi®-Well dispenser. Compound incubation was then carried out at room temperature for 10 minutes. The assay plate was transferred to the […] and 20 μL of 10 mM Ca^2+ (final concentration=5 mM) Tyrode's buffer was injected.
# Table B1 below summarizes the data from this experiment. Unless otherwise specified, AC50 and values are reported as the geometric mean of at least 2 assay runs on separate days. Each run represents the average of a technical replicate, where each compound was assayed twice in the same plate. A superscript t symbol indicates a value from the average of a technical replicate from a single assay run, where each compound was assayed twice in the same plate.
# The AC50 values in Table B1 below reflect the compound's ability to prevent calcium influx by inhibiting APOL1. […] Compounds in Table B1 are referred to by the corresponding Compound Number in Table 1, which is also referred to in the synthetic examples. When one or more of the numbered compounds are identified by stereochemistry (for example, (R)- or (S)-), the specific stereoisomer for which data is provided in Table B1 may be identified by the elution order of such compound as described in the synthetic examples. To illustrate, Compound 2 is the first-eluting enantiomer of step 4 of Example 1 and Compound 3 is the second-eluting enantiomer of step 4 of Example 1. Further, by way of illustration, Compound 27 is the first-eluting enantiomeric mixture in step 4 of Example 7 and Compound 28 is the second-eluting enantiomeric mixture in step 4 of Example 7. […]
AC50 [2],SMILES,pEC50 [1]
703 nM,"CC(c1ccc(OC[C@@H]2CN(CCc3cccc(Cl)c3)CCN2)cc1)S(C)(=O)=O (single isomer, unassigned) [Compound 142, (3S)-1-[2-(3-chlorophenyl)ethyl]-3-({4-[(1S) or (1R)-1-methanesulfonylethyl]phenoxy}methyl)piperazine]",6.64
221 nM,"C[C@@H]1CN(CCc2cc(Cl)cc(C#N)c2)C[C@H]1COc1ccc(S(C)(=O)=O)nc1 [Compound 85, 3-chloro-5-{2-[(3S,4S)-3-{[(6-methanesulfonylpyridin-3-yl)oxy]methyl}-4-methylpyrrolidin-1-yl]ethyl}benzonitrile]",6.73
4920 nM,"CS(=O)(=O)c1ccc(OCC2C[C@@H](CO)N(CCc3cccc(Cl)c3)C2)cc1 (single isomer, unassigned) [Compound 124, [(2S,4R or 4S)-1-[2-(3-chlorophenyl)ethyl]-4-[(4-methanesulfonylphenoxy)methyl]pyrrolidin-2-yl]methanol]",5.27
470 nM,"C[C@@H]1CN(C(CO)Cc2cccc(Cl)c2)C[C@H]1COc1ccc(S(C)(=O)=O)cc1 (stereo partly drawn) [Compound 115, 3-(3-chlorophenyl)-2-[(3S,4S)-3-[(4-methanesulfonylphenoxy)methyl]-4-methylpyrrolidin-1-yl]propan-1-ol]",5.74
1130 nM,"C[C@@H]1C[C@H](COc2ccc(S(=O)(=O)CCS(C)(=O)=O)cc2)CN1C1CCc2c(C#N)cc(Cl)cc2C1 (single isomer, unassigned) [Compound 48, (6R or 6S)-3-chloro-6-[(2R,4S)-4-{[4-(2-methanesulfonylethanesulfonyl)phenoxy]methyl}-2-methylpyrrolidin-1-yl]-5,6,7,8-tetrahydronaphthalene-1-carbonitrile]",6.40
698 nM,"C[C@@H]1C[C@H](COc2ccc(S(=O)(=O)CCO)cc2)CN1C1CCc2ccc(Cl)cc2C1 (stereo partly drawn) [Compound 61, 2-(4-{[(3S,5R)-1-[7-chloro-1,2,3,4-tetrahydronaphthalen-2-yl]-5-methylpyrrolidin-3-yl]methoxy}benzenesulfonyl)ethan-1-ol]",7.20
189 nM,"C[C@@H]1CN(CCc2cc(Cl)cc(C#N)c2)C[C@H]1COc1ccc(C2(S(C)(=O)=O)CC2)cc1 [Compound 77, 3-chloro-5-{2-[(3S,4S)-3-{[4-(1-methanesulfonylcyclopropyl)phenoxy]methyl}-4-methylpyrrolidin-1-yl]ethyl}benzonitrile]",6.75
707 nM,"C[C@@H]1C[C@H](COc2ccc(S(C)(=O)=O)cc2)CN1C1CCc2ccc(C#N)cc2C1 (single isomer, unassigned) [Compound 136, (7S or 7R)-7-[(2R,4S)-4-[(4-methanesulfonylphenoxy)methyl]-2-methylpyrrolidin-1-yl]-5,6,7,8-tetrahydronaphthalene-2-carbonitrile]",6.15
581 nM,"C[C@@H]1C[C@H](COc2ccc(S(=O)(=O)CCO)cc2)CN1C1CCc2ccc(C#N)cc2C1 (stereo partly drawn) [Compound 58, 7-[(2R,4S)-4-{[4-(2-hydroxyethanesulfonyl)phenoxy]methyl}-2-methylpyrrolidin-1-yl]-5,6,7,8-tetrahydronaphthalene-2-carbonitrile]",7.36
1070 nM,"C[C@@H]1C[C@H](COc2ccc(S(C)(=O)=O)cc2)CN1C1CCc2c(C#N)cc(Cl)cc2C1 (single isomer, unassigned) [Compound 8, (6R or 6S)-3-chloro-6-[(2R,4S)-4-[(4-methanesulfonylphenoxy)methyl]-2-methylpyrrolidin-1-yl]-5,6,7,8-tetrahydronaphthalene-1-carbonitrile]",6.82
662 nM,"C[C@@H]1C[C@H](COc2ccc(S(=O)(=O)CCS(C)(=O)=O)cc2)CN1C1CCc2ccc(C#N)cc2C1 (single isomer, unassigned) [Compound 33, 7S or 7R)-7-[(2R,4S)-4-{[4-(2-methanesulfonylethanesulfonyl)phenoxy]methyl}-2-methylpyrrolidin-1-yl]-5,6,7,8-tetrahydronaphthalene-2-carbonitrile]",6.88

# From US20260055083A1, “APOL1 INHIBITORS AND METHODS OF USE” (Maze Therapeutics, Inc., priority 2022, published 2026)
